This note sets out measurements from ChEMBL document CHEMBL4011588, “Design, synthesis, and biological evaluation of novel 4-anilinoquinazoline derivatives bearing amino acid moiety as potential EGFR kinase inhibitors” (Eur J Med Chem, 2017).

The target of test [1] is Aurora kinase B (Homo sapiens, UniProt Q96GD4). The test can be described thus: Inhibition of Aurora B (unknown origin) measured after 40 mins by Kinase Glo luminescence assay.
Test [2] relates to HepG2. The test can be described thus: Antiproliferative activity against human HepG2 cells after 72 hrs by sulforhodamine B assay. It counts as functional, cell-based. Particulars: HepG2, 72 h.
The target of test [3] is Epidermal growth factor receptor (Homo sapiens, UniProt P00533). The test can be described thus: Inhibition of EGFR (unknown origin) measured after 40 mins by Kinase Glo luminescence assay.
Chain of Epidermal growth factor receptor (P00533 whole entry): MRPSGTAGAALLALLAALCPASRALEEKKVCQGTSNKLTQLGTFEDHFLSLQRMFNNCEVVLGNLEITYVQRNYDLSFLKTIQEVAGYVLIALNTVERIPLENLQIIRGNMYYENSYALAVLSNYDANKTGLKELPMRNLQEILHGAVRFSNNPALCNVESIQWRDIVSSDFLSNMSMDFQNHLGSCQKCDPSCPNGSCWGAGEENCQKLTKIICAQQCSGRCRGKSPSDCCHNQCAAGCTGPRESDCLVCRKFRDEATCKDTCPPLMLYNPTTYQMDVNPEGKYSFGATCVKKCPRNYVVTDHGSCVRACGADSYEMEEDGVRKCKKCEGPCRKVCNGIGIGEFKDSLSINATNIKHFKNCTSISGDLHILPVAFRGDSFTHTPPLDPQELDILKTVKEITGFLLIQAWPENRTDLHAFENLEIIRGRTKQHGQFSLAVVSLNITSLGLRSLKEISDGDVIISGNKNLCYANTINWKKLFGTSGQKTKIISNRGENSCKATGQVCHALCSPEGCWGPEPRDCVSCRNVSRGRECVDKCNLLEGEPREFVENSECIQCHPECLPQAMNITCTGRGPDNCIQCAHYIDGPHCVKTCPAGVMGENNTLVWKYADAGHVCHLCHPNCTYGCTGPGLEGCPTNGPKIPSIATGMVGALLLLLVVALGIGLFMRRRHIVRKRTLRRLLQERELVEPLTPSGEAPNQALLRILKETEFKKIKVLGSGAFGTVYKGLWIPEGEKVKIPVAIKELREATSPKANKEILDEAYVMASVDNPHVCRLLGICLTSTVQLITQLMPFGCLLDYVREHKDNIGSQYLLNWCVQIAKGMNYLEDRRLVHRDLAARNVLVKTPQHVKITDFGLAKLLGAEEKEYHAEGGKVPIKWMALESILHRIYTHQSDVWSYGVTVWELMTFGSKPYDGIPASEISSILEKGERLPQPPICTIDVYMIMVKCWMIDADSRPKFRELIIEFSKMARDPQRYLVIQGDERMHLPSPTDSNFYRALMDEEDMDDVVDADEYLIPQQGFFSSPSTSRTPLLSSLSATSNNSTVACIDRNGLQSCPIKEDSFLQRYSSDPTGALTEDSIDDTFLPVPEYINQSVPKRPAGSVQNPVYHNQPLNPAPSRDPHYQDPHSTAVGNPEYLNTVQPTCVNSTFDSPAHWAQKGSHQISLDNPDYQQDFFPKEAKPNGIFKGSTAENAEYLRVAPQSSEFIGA
In test [4] the target is RAF proto-oncogene serine/threonine-protein kinase (Homo sapiens, UniProt P04049). In words: Inhibition of RAF (unknown origin) measured after 40 mins by Kinase Glo luminescence assay.
Chain of RAF proto-oncogene serine/threonine-protein kinase (P04049 whole entry): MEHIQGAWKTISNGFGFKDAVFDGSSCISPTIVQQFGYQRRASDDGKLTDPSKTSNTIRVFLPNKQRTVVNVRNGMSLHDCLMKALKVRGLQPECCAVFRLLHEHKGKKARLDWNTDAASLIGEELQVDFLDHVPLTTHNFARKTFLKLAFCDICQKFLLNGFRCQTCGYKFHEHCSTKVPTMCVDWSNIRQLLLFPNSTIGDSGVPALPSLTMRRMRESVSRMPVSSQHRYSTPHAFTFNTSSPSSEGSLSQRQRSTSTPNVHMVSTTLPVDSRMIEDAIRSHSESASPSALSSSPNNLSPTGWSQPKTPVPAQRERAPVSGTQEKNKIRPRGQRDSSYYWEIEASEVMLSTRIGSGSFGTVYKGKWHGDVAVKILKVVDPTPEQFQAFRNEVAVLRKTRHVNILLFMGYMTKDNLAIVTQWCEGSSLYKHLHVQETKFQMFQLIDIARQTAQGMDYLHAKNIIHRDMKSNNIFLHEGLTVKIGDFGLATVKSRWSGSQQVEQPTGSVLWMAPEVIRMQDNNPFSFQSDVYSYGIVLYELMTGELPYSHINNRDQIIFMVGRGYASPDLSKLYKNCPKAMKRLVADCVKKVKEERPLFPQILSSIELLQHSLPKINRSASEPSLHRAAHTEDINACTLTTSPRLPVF
In test [5] the target is Vascular endothelial growth factor receptor 2 (Homo sapiens, UniProt P35968). The test can be described thus: Inhibition of VEGFR2 (unknown origin) measured after 40 mins by Kinase Glo luminescence assay.
Chain of Vascular endothelial growth factor receptor 2 (P35968 whole entry): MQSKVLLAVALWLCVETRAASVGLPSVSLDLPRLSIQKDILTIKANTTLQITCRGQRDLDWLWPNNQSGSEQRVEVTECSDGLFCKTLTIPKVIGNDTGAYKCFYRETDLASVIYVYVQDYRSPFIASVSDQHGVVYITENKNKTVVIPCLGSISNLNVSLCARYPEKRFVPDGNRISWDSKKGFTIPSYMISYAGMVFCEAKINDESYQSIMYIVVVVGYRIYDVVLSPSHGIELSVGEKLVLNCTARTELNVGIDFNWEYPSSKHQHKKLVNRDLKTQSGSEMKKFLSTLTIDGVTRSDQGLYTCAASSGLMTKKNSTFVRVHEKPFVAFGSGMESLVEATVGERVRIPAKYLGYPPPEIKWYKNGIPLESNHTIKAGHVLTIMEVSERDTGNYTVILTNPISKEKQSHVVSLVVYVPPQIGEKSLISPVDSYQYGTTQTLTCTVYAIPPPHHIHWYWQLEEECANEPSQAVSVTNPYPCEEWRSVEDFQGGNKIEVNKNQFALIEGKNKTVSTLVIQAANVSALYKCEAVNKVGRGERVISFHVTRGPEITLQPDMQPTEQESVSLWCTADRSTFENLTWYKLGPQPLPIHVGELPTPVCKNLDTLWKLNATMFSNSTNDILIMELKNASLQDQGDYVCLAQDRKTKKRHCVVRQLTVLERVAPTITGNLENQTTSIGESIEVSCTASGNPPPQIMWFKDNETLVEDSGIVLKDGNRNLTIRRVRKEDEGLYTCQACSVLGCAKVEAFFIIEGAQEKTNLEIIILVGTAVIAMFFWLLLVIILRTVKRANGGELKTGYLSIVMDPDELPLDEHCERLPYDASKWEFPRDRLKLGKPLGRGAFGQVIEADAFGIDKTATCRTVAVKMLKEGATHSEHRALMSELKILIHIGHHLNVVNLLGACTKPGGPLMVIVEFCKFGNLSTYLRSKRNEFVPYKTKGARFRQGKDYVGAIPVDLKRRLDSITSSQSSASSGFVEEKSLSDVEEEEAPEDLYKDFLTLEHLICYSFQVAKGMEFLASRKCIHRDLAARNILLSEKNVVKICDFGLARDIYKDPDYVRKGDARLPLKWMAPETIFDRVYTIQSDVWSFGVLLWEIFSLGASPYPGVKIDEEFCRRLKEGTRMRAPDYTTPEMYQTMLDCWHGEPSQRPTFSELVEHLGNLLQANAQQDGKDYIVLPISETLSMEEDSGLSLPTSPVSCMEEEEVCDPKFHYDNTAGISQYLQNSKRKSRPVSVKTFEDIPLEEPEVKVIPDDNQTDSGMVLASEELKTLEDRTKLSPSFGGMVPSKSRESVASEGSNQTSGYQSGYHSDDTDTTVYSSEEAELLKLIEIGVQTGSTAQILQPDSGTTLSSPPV
For test [6], the target named is Hepatocyte growth factor receptor (Homo sapiens, UniProt P08581). In words: Inhibition of c-MET (unknown origin) measured after 40 mins by Kinase Glo luminescence assay.
Chain of Hepatocyte growth factor receptor (P08581 whole entry): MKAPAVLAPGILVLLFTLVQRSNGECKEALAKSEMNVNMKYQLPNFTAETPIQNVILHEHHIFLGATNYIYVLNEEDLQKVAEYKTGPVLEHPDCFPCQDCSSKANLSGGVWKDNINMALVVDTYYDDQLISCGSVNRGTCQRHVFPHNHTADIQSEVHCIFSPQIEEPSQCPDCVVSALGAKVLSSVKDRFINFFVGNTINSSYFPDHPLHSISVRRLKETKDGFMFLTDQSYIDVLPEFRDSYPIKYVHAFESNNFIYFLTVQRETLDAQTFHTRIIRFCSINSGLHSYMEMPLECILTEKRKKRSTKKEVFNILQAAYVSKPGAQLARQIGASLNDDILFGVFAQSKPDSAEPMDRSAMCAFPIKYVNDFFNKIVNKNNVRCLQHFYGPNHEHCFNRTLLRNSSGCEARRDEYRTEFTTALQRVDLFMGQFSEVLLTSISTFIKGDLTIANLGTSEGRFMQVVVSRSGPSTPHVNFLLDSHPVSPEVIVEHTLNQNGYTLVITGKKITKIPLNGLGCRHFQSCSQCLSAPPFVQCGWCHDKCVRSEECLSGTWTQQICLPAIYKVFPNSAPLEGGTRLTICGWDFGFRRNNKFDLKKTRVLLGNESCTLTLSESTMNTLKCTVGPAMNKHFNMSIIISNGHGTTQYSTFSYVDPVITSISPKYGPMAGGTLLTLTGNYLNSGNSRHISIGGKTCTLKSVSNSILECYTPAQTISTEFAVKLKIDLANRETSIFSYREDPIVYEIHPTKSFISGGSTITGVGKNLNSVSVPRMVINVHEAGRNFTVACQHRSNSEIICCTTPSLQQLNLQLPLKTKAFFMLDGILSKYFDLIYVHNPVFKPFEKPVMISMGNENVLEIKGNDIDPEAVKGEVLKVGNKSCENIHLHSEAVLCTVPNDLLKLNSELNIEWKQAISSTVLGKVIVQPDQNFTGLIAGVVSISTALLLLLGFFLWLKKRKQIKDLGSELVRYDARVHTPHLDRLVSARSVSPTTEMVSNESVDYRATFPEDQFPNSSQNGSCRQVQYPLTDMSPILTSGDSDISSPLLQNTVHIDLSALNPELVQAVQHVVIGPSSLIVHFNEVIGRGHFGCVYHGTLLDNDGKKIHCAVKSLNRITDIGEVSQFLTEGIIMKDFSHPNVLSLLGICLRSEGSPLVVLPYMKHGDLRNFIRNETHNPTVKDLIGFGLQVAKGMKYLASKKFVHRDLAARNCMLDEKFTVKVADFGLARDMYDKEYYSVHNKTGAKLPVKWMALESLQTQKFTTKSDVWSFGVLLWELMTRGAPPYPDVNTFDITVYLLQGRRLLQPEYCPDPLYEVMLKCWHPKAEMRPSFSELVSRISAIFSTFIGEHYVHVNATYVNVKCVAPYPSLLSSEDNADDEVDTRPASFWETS
Test [7] has as its target Dual specificity mitogen-activated protein kinase kinase; MEK1/2 (Homo sapiens, UniProt P36507+Q02750). In words: Inhibition of MEK (unknown origin) measured after 40 mins by Kinase Glo luminescence assay.
Test [8] concerns HepG2. In words: Induction of apoptosis in human HepG2 cells assessed as late apoptotic cells at 10 uM after 24 to 72 hrs by Annexin V-FITC/propidium iodide staining based flow cytometric method (reference value: 4.56%). Format: functional.
Test [9] deals with HepG2. In words: Induction of apoptosis in human HepG2 cells assessed as early apoptotic cells at 10 uM after 24 to 72 hrs by Annexin V-FITC/propidium iodide staining based flow cytometric method (reference value: 1.28%). Format: functional.
Test [10] has as its system HepG2. In words: Induction of apoptosis in human HepG2 cells assessed as appearance of apoptotic bodies at 2 to 10 uM after 15 mins to 24 hrs by Hoechst 33258 staining based fluorescence microscopic method. It counts as functional, cell-based.
For test [11], the system named is HepG2. In words: Induction of apoptosis in human HepG2 cells assessed as increase in cytochrome-c expression at 10 uM after 30 mins to 24 hrs by Western blot method. It counts as functional, cell-based.
Test [12] concerns HepG2. The test can be described thus: Induction of apoptosis in human HepG2 cells assessed as decrease in Bcl-2 expression at 2 to 10 uM after 30 mins to 24 hrs by Western blot method. Format: functional, cell-based.
Test [13] relates to HepG2. In words: Induction of apoptosis in human HepG2 cells assessed as early apoptotic cells at 5 uM after 24 to 72 hrs by Annexin V-FITC/propidium iodide staining based flow cytometric method (reference value: 1.28%). Format: functional.
Test [14] deals with HepG2. The test can be described thus: Induction of apoptosis in human HepG2 cells assessed as nuclear chromatin condensation at 2 to 10 uM after 15 mins to 24 hrs by Hoechst 33258 staining based fluorescence microscopic method. It counts as functional, cell-based.
Test [15] deals with HepG2. The test can be described thus: Induction of apoptosis in human HepG2 cells assessed as late apoptotic cells at 5 uM after 24 to 72 hrs by Annexin V-FITC/propidium iodide staining based flow cytometric method (reference value: 4.56%). It counts as functional.
For test [16], the system named is HepG2. The test can be described thus: Induction of apoptosis in human HepG2 cells assessed as decrease in mitochondrial membrane potential after 15 mins to 24 hrs by JC1 staining based fluorescence microscopic method. Format: functional, cell-based.
Test [17] concerns HepG2. In words: Induction of apoptosis in human HepG2 cells assessed as early apoptotic cells at 2 uM after 24 to 72 hrs by Annexin V-FITC/propidium iodide staining based flow cytometric method (reference value: 1.28%). It counts as functional.
Test [18] deals with HepG2. The test can be described thus: Induction of apoptosis in human HepG2 cells assessed as increase in Bax expression at 2 to 10 uM after 30 mins to 24 hrs by Western blot method. Format: functional, cell-based.
Test [19] concerns HepG2. The test can be described thus: Induction of apoptosis in human HepG2 cells assessed as late apoptotic cells at 2 uM after 24 to 72 hrs by Annexin V-FITC/propidium iodide staining based flow cytometric method (reference value: 4.56%). It counts as functional.
The subject of test [20] is HepG2. The test can be described thus: Induction of apoptosis in human HepG2 cells assessed as increase in cleaved caspase-3 level at 5 to 10 uM after 30 mins to 24 hrs by Western blot method. Format: functional, cell-based.
Test [21] deals with HepG2. In words: Induction of apoptosis in human HepG2 cells after 24 to 72 hrs by Annexin V-FITC/propidium iodide staining based flow cytometric method. Format: functional, cell-based.

Active and inactive are the calls of the source. The calls are words filed in the database; no cut-off is given here.

Chain of Aurora kinase B (Q96GD4 whole entry): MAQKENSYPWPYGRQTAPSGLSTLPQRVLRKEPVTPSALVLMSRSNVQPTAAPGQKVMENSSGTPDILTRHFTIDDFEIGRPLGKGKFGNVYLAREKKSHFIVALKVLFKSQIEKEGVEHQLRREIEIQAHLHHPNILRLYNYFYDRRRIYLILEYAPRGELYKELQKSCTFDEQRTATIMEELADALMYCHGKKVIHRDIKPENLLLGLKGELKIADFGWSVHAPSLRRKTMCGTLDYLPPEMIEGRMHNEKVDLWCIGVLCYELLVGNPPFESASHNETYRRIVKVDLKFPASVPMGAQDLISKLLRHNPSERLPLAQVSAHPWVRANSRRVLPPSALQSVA

`CSCC[C@@H](NC(=O)OC(C)(C)C)C(=O)Nc1ccc2ncnc(Nc3cccc(C(F)(F)F)c3)c2c1`: the 50% inhibitory concentration (IC50) is more than 100 µM in test [1] and more than 50 µM in test [2].

`CSCC[C@@H](NC(=O)OC(C)(C)C)C(=O)Nc1ccc2ncnc(Nc3cccc(Br)c3)c2c1`: the IC50 was more than 100 µM in test [1] and more than 50 µM in [2].

On to `C[C@@H](NC(=O)OC(C)(C)C)C(=O)Nc1ccc2ncnc(Nc3ccc(F)c(Cl)c3)c2c1`, for which the concentration for half-maximal inhibition (IC50) in [1] was more than 100 µM; in test [3], more than 100 µM; in [2], more than 50 µM.

Take `C[C@@H](NC(=O)OC(C)(C)C)C(=O)Nc1ccc2ncnc(Nc3cccc(C(F)(F)F)c3)c2c1`: the concentration for half-maximal inhibition (IC50) in test [1] is more than 100 µM; in [3] it was more than 100 µM; in test [2], more than 50 µM.

With `CC(C)[C@@H](NC(=O)OC(C)(C)C)C(=O)Nc1ccc2ncnc(Nc3cccc(C(F)(F)F)c3)c2c1`, the IC50 in [4] was more than 100 µM; in test [1], more than 100 µM; in [5] it was more than 100 µM; in test [3] it was 1.02 µM; in test [6] it was 100 to 500 µM; in test [2] it was 4.3 µM. Moreover, the IC50 in [7] is more than 100 µM.

`Cc1cccc(C)c1Nc1ncnc2ccc(NC(=O)CNC(=O)OC(C)(C)C)cc12`: the 50% inhibitory concentration (IC50) in test [1] is more than 100 µM; in test [2], more than 50 µM.

With `CC(C)C[C@@H](NC(=O)OC(C)(C)C)C(=O)Nc1ccc2ncnc(Nc3ccc(F)c(Cl)c3)c2c1`, the IC50 in test [1] was more than 100 µM; in test [3], 0.14 µM; in [2] it was 13.8 µM.

`CC(C)(C)OC(=O)NCC(=O)Nc1ccc2ncnc(Nc3cccc(C(F)(F)F)c3)c2c1`: the 50% inhibitory concentration (IC50) is 51 µM in test [1] and more than 50 µM in test [2].

`CC(C)[C@@H](NC(=O)OC(C)(C)C)C(=O)Nc1ccc2ncnc(Nc3ccc(F)c(Cl)c3)c2c1`: the IC50 in test [1] is more than 100 µM; in test [2] it was more than 50 µM.

Consider `CC[C@H](C)[C@@H](NC(=O)OC(C)(C)C)C(=O)Nc1ccc2ncnc(Nc3cccc(C(F)(F)F)c3)c2c1`, for which the concentration for half-maximal inhibition (IC50) in [1] is more than 100 µM; in test [2], more than 50 µM.

Turning to `CC[C@H](C)[C@@H](NC(=O)OC(C)(C)C)C(=O)Nc1ccc2ncnc(Nc3ccc(F)c(Cl)c3)c2c1`, the values for the IC50 in test [1] and in test [2] were more than 100 µM and more than 50 µM, respectively.

Take `CC(C)(C)OC(=O)NCC(=O)Nc1ccc2ncnc(Nc3ccc(F)c(Cl)c3)c2c1`: the half-maximal inhibitory concentration (IC50) is 23.7 µM in [1], 0.017 µM in test [3] and 33 µM in test [2].

For `CC[C@H](C)[C@@H](NC(=O)OC(C)(C)C)C(=O)Nc1ccc2ncnc(Nc3cccc(Br)c3)c2c1`, the IC50 in test [1] was more than 100 µM; in [3] it was 0.0555 µM; in test [2], 34 µM.

For the molecule `CSCC[C@@H](NC(=O)OC(C)(C)C)C(=O)Nc1ccc2ncnc(Nc3ccc(F)c(Cl)c3)c2c1`, the 50% inhibitory concentration (IC50) in [1] is more than 100 µM; in test [2], more than 50 µM.

As for `CC(C)C[C@@H](NC(=O)OC(C)(C)C)C(=O)Nc1ccc2ncnc(Nc3cccc(C(F)(F)F)c3)c2c1`, the IC50 in test [1] is more than 100 µM; in test [2] it was more than 50 µM.

For `CC(C)C[C@@H](NC(=O)OC(C)(C)C)C(=O)Nc1ccc2ncnc(Nc3cccc(Br)c3)c2c1`, the IC50 is more than 100 µM in [1], 0.145 µM in test [3] and 25 µM in [2].

On to `COc1cc2c(Nc3ccc(NC(=O)c4ccccc4)cc3)ncnc2cc1OCCCN1CCOCC1`, for which the concentration for half-maximal inhibition (IC50) in test [3] came out at 0.11 µM; in [2], 1.4 µM. In addition, the figures for the Activity in [8] and in test [9] were 8.86% and 1.09%, respectively.

In the case of `CC(C)(C)OC(=O)NCC(=O)Nc1ccc2ncnc(Nc3cccc(Br)c3)c2c1`, the outcome in test [10], in test [11], in [12], in [14], in [18] and in test [20] was Active. Moreover, the IC50 in [4] was 17.3 µM; in [1], 6.2 µM; in test [5] it was 18.7 µM; in [6], more than 100 µM; in test [2], 8.3 µM; in [7], 7.35 µM. The Activity in test [13] is 1.96%; in test [15], 9.25%; in [8] it was 32.19%; in [16] it was “Dose-dependent effect”; in test [17] it was 2.08%; in test [9], 1.53%. The Activity was 6.38% in test [19] and “Dose-dependent effect” in test [21].

For `CC(C)[C@@H](NC(=O)OC(C)(C)C)C(=O)Nc1ccc2ncnc(Nc3cccc(Br)c3)c2c1`, the values for the IC50 in test [1] and in test [2] were more than 100 µM and more than 50 µM, respectively.

As to `C[C@@H](NC(=O)OC(C)(C)C)C(=O)Nc1ccc2ncnc(Nc3cccc(Br)c3)c2c1`, the half-maximal inhibitory concentration (IC50) in test [1] is more than 100 µM; in test [3], more than 100 µM; in test [2] it was more than 50 µM.
